Laboratory results from US10287255B2, “Compounds as histone deacetylase 6 inhibitors and pharmaceutical compositions comprising the same” (CHONG KUN DANG PHARMACEUTICAL CORP., priority 2014, dated 2019).

Assays:
[1] = target: T1, human recombinant HDAC6 (Homo sapiens, UniProt Q9UBN7); assay: HDAC6 enzyme activity inhibition assay (in vitro, fluorimetric); format: biochemical; conditions: for HDAC6 selectivity (fold): HDAC6 selectivity over HDAC1; for IC50: human recombinant HDAC6, fluorimetric kit, same protocol as HDAC1
T1 construct: purchased Calbiochem 382180
T1 sequence (Q9UBN7 1-1215): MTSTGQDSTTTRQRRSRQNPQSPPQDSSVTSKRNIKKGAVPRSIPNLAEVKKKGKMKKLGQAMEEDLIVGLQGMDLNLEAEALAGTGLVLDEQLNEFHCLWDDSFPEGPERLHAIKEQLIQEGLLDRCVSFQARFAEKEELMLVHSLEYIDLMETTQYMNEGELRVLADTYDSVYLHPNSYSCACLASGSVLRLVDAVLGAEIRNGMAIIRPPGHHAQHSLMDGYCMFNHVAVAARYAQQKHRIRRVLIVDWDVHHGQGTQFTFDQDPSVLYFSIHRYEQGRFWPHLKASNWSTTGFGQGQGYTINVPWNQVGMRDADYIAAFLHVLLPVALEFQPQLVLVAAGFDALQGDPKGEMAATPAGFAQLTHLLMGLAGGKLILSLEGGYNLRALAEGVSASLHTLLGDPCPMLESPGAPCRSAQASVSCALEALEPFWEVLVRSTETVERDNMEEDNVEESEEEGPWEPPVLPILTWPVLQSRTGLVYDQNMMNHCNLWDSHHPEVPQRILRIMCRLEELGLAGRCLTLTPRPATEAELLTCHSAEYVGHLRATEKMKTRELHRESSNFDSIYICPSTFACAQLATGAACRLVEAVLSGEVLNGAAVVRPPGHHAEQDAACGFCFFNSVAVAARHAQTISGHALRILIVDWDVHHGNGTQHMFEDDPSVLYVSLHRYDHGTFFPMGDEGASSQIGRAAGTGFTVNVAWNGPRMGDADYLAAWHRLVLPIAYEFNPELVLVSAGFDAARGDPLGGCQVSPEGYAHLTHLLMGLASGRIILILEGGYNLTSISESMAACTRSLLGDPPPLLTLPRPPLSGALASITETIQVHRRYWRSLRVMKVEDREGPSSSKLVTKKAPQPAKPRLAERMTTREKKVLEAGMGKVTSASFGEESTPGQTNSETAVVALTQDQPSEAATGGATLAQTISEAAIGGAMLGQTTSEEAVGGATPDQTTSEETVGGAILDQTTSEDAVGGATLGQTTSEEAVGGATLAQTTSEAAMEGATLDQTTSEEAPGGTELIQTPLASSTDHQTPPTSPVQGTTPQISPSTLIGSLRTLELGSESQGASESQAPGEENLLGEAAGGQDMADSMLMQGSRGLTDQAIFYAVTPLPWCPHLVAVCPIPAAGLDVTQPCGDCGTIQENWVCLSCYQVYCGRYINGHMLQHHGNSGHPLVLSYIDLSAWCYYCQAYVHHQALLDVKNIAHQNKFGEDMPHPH
Procedure: (§1) In order to examine the HDAC6 selectivity of the compounds of formula 1 of the present invention by HDAC1 and HDAC6 enzymatic activity inhibition assays, an experiment was performed using a conventional substance as a control.
(§2) HDAC enzyme activity was measured using a HDAC Fluorimetric Drug Discovery Kit (BML-AK511, 516, Enzo Life Science). For the HDAC1 enzyme activity test, human recombinant HDAC1 (BML-SE456) was used as an enzyme source, and Fluor de Lys®-“SIRT1 (BNL-KI177) was used as a substrate. A 5-fold dilution of the compound was seeded into a 96-well plate, and then 0.3 μg of the enzyme and 10 μM of the substrate were added to each well of the plate and allowed to react at 30° C. for 60 minutes. Then, Fluor de Lys® Developer II (BML-KI176) was added thereto and allowed to react for 30 minutes, after which the fluorescence value (Ex 360, Em 460) was measured using a multi-plate reader (Flexstation 3, Molecular Device). The HDAC6 enzyme was tested using human recombinant HDAC6 (382180) (Calbiochem) according to the same protocol as the HDAC1 enzyme activity test method. Based on the resulting values, each IC50 value was calculated using GraphPad Prism4.0 program.

[2] = target: T2, human recombinant HDAC1 (Homo sapiens, UniProt Q13547); assay: HDAC1 enzyme activity inhibition assay (in vitro, fluorimetric); format: biochemical; conditions: human recombinant HDAC1, fluorimetric kit, 30° C. 60 minutes
T2 construct: purchased Enzo Life Science BML-SE456
Procedure: as §1, §2

T2 sequence (Q13547 whole entry): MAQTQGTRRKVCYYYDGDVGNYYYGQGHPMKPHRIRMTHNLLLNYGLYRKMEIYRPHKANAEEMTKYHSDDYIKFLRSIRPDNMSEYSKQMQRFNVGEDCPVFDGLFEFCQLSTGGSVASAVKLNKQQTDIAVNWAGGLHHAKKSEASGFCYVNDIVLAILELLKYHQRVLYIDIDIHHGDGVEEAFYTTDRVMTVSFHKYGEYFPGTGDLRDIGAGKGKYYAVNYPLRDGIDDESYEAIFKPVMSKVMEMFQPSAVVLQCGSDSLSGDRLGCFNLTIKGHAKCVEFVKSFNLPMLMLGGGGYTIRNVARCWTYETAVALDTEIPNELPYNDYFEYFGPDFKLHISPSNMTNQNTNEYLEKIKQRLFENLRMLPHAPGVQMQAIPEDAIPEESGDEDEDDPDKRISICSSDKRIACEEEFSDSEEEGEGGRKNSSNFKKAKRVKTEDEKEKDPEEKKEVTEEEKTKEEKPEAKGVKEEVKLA

Row | SMILES | HDAC6 selectivity (fold) [1] | IC50 [1] | IC50 [2]
1 | C[C@@H]1CN(C(=O)c2ccccc2)C[C@H](C)N1Cc1ccc(C(=O)NO)cc1 [Compound 080, 4-(((2S,6R)-4-benzoyl-2,6-dimethylpiperazin-1-yl)methyl)-N-hydroxybenzamide] | 37 fold | 0.179 µM | 6.6 µM
2 | C[C@@H]1CN(Cc2ccccc2)C[C@H](C)N1Cc1ccc(C(=O)NO)cc1 [Compound 081, 4-(((2S,6R)-4-benzyl-2,6-dimethylpiperazin-1-yl)methyl)-N-hydroxybenzamide] | 78 fold | 0.144 µM | 11.2 µM
3 | CC(=O)N1[C@H](C)CN(Cc2ccc(C(=O)NO)cc2)C[C@@H]1C [Compound 082, 4-(((3R,5S)-4-acetyl-3,5-dimethylpiperazin-1-yl)methyl)-N-hydroxybenzamide] | 369 fold | 0.034 µM | 12.5 µM
4 | C[C@@H]1CN(Cc2ccc(C(=O)NO)cc2)C[C@H](C)N1C(=O)c1ccccc1 [Compound 083, 4-(((3R,5S)-4-benzoyl-3,5-dimethylpiperazin-1-yl)methyl)-N-hydroxybenzamide] | 201 fold | 0.01 µM | 2 µM
5 | C[C@@H]1CN(Cc2ccc(C(=O)NO)cc2)C[C@H](C)N1Cc1ccccc1 [Compound 084, 4-(((3R,5S)-4-benzyl-3,5-dimethylpiperazin-1-yl)methyl)-N-hydroxybenzamide] | – | 0.023 µM | 11.9 µM
6 | CC(C)NC(=O)N1[C@H](C)CN(Cc2ccc(C(=O)NO)cc2)C[C@@H]1C [Compound 098, (2S,6R)-4-(4-(hydroxycarbamoyl)benzyl)-N-isopropyl-2,6-dimethylpiperazine-1-carboxamide] | >133 fold | 0.075 µM | > 10 µM
7 | C[C@@H]1CN(Cc2ccc(C(=O)NO)cc2)C[C@H](C)N1C(=O)Nc1cccc(Cl)c1 [Compound 099, (2S,6R)-N-(3-chlorophenyl)-4-(4-(hydroxycarbamoyl)benzyl)-2,6-dimethylpiperazine-1-carboxamide] | 51 fold | 0.242 µM | 12.4 µM
8 | C[C@@H]1CN(Cc2ccc(C(=O)NO)cc2)C[C@H](C)N1S(=O)(=O)c1ccccc1 [Compound 100, 4-(((3R,5S)-3,5-dimethyl-4-(phenylsulfonyl)piperazin-1-yl)methyl)-N-hydroxybenzamide] | >105 fold | 0.095 µM | > 10 µM
9 | CC(C)NC(=O)N1C[C@@H](C)N(Cc2ccc(C(=O)NO)cc2)[C@@H](C)C1 [Compound 103, (3R,5S)-4-(4-(hydroxycarbamoyl)benzyl)-N-isopropyl-3,5-dimethylpiperazine-1-carboxamide] | 15 fold | 0.173 µM | 2.6 µM
10 | C[C@@H]1CN(C(=O)Nc2cccc(Cl)c2)C[C@H](C)N1Cc1ccc(C(=O)NO)cc1 [Compound 104, (3R,5S)-N-(3-chlorophenyl)-4-(4-(hydroxycarbamoyl)benzyl)-3,5-dimethylpiperazine-1-carboxamide] | 9 fold | 0.082 µM | 0.7 µM
11 | C[C@@H]1CN(S(=O)(=O)c2ccccc2)C[C@H](C)N1Cc1ccc(C(=O)NO)cc1 [Compound 105, 4-(((2S,6R)-2,6-dimethyl-4-(phenylsulfonyl)piperazin-1-yl)methyl)-N-hydroxybenzamide] | 27 fold | 0.06 µM | 1.6 µM
12 | C[C@@H]1CN(C(=O)c2ccc(Cl)cc2)C[C@H](C)N1Cc1ccc(C(=O)NO)cc1 [Compound 106, 4-(((2S,6R)-4-(4-chlorobenzoyl)-2,6-dimethylpiperazin-1-yl)methyl)-N-hydroxybenzamide] | 61 fold | 0.119 µM | 7.3 µM
13 | C[C@@H]1CN(C(=O)c2cccc(Cl)c2)C[C@H](C)N1Cc1ccc(C(=O)NO)cc1 [Compound 107, 4-(((2S,6R)-4-(3-chlorobenzoyl)-2,6-dimethylpiperazin-1-yl)methyl)-N-hydroxybenzamide] | 81 fold | 0.103 µM | 8.3 µM
14 | C[C@@H]1CN(C(=O)c2ccccc2Cl)C[C@H](C)N1Cc1ccc(C(=O)NO)cc1 [Compound 108, 4-(((2S,6R)-4-(2-chlorobenzoyl)-2,6-dimethylpiperazin-1-yl)methyl)-N-hydroxybenzamide] | 79 fold | 0.166 µM | 13.1 µM
15 | C[C@@H]1CN(S(=O)(=O)c2ccc(Cl)cc2)C[C@H](C)N1Cc1ccc(C(=O)NO)cc1 [Compound 109, 4-(((2S,6R)-4-((4-chlorophenyl)sulfonyl)-2,6-dimethylpiperazin-1-yl)methyl)-N-hydroxybenzamide] | 67 fold | 0.075 µM | 5.1 µM
16 | C[C@@H]1CN(S(=O)(=O)c2ccccc2Cl)C[C@H](C)N1Cc1ccc(C(=O)NO)cc1 [Compound 110, 4-(((2S,6R)-4-((2-chlorophenyl)sulfonyl)-2,6-dimethylpiperazin-1-yl)methyl)-N-hydroxybenzamide] | 59 fold | 0.085 µM | 5 µM
17 | C[C@@H]1CN(C(=O)c2ccccn2)C[C@H](C)N1Cc1ccc(C(=O)NO)cc1 [Compound 111, 4-(((2S,6R)-2,6-dimethyl-4-picolinoylpiperazin-1-yl)methyl)-N-hydroxybenzamide] | >22 fold | 0.461 µM | > 10 µM
18 | C[C@@H]1CN(Cc2ccc(C(=O)NO)c(F)c2)C[C@H](C)N1Cc1ccccc1 [Compound 171, 4-(((3R,5S)-4-benzyl-3,5-dimethylpiperazin-1-yl)methyl)-2-fluoro-N-hydroxybenzamide] | >256 fold | 0.039 µM | –
19 | C[C@@H]1CN(Cc2ccccc2)C[C@H](C)N1Cc1ccc(CC(=O)NO)cc1 [Compound 176, 2-(4-(((2S,6R)-4-benzyl-2,6-dimethylpiperazin-1-yl)methyl)phenyl)-N-hydroxyacetamide] | >23 fold | 0.429 µM | –
20 | C[C@@H]1CN(Cc2ccc(C(=O)NO)cc2)C[C@H](C)N1CCc1ccccc1 [Compound 184, 4-(((3R,5S)-3,5-dimethyl-4-phenethylpiperazin-1-yl)methyl)-N-hydroxybenzamide] | >40 fold | 0.249 µM | –
21 | C[C@@H]1CN(Cc2ccc(C(=O)NO)cc2)C[C@H](C)N1Cc1ccccc1C1=CCC(C)(C)CC1 [Compound 331, 4-(((3R,5S)-4-((4′,4′-dimethyl-2′,3′,4′,5′-tetrahydro-[1,1′-biphenyl]-2-yl)methyl)-3,5-dimethylpiperazin-1-yl)methyl)-N-hydroxybenzamide] | 13 fold | 0.731 µM | –
22 | CC(C)CCN1CCN(Cc2cccc(CN3[C@H](C)CN(Cc4ccc(C(=O)NO)cc4)C[C@@H]3C)c2)CC1 [Compound 454, N-hydroxy-4-(((3R,5S)-4-(3-((4-isopentylpiperazin-1-yl)methyl)benzyl)-3,5-dimethylpiperazin-1-yl)methyl)benzamide] | – | 0.044 µM | –
23 | C[C@@H]1CN(Cc2ccc3oc(C(=O)NO)cc3c2)C[C@H](C)N1Cc1ccccc1 [Compound 571, 5-(((3R,5S)-4-benzyl-3,5-dimethylpiperazin-1-yl)methyl)-N-hydroxybenzofuran-2-carboxamide] | 48 fold | 0.21 µM | –
